Values quoted from earlier work in US20130266625A1 (YISSUM RESEARCH DEVELOPMENT COMPANY OF THE HEBREW …, priority 2011, published 2013).

Key:
[1] = test system: cultured dermal fibroblasts
[2] = test system: procollagen alpha1 (I), MMP-1 and TIMP-1 expression in skin; conditions: 5% in ethanol:olive oil (1:2), 12 times over 4 weeks
[3] = 50 mg/day over one year

Structure (SMILES): C[C@]12CC[C@H](O)CC1=CC[C@@H]1[C@@H]2CC[C@]2(C)C(=O)CC[C@@H]12 [DHEA, dehydroepiandrosterone]
- matrix metalloproteinase (MMP)-1 synthesis [1]: decreasing
- procollagen synthesis [1]: increase procollagen synthesis
- tissue inhibitor of matrix metalloprotease (TIMP-1) production [1]: increasing
- basal expression of MMP-1 mRNA and protein [2]: significantly decreased
- expression of procollagen alpha1 (I) mRNA and protein ([2]; aged and young skin): significantly increase
- expression of TIMP-1 protein ([2]; aged skin): increased
- harmful consequences [3]: no harmful consequences were observed
- skin status (hydration, epidermal thickness, sebum production, skin pigmentation) ([3]; individuals aged 60 years and over): improvement of the skin status
